Several values for one entry are separate records, joined by “and”; a condition that tells them apart may be missing. Identical values can stand only once.
Key:
[1] = system: Candida albicans ATCC90028; assay: Radial diffusion assay (RDA), C. albicans; format: cell-based; set-up: unit not given here; conditions: Table 1c; for RDA Data (single replicates), C. albicans: individual values
Protocol: (§1) Peptides. Peptides were from Sigma-Genosys, generated by a peptide synthesis platform (PEPscreen®, Custom Peptide Libraries, SigmaGenosys). Yield was ˜1-6 mg, and peptide length 20 amino acids. MALDI-ToF Mass Spectrometry was perfomed on these peptides. Average Crude Purity of 20mers was ˜60%. Peptides were supplied lyophilized and in a 96-well tube rack. Prior to biological testing the PEPscreen peptides were diluted in dH2O (5 mM stock), and stored at −20 C. This stock solution was used for the subsequent experiments.
(§2) Eschericia coli ATCC25922, Staphylococcus aureus ATCC29213, and the fungal isolate Candida albicans ATCC90028 were obtained from the Department of Bacteriology, Lund University Hospital.
(§3) Radial diffusion assays (RDA) were performed essentially as described earlier (Lehrer, R. I., Rosenman, M., Harwig, S. S., Jackson, R. & Eisenhauer, P. (1991) Ultrasensitive assays for endogenous antimicrobial polypeptides, J Immunol Methods. 137, 167-73). Briefly, bacteria (E. coli, S. aureus) or fungi (C. albicans) were grown to midlogarithmic phase in 10 ml of full-strength (3% w/v) trypticase soy broth (TSB) (Becton-Dickinson, Cockeysville, Md.). The microorganisms were washed once with 10 mM Tris, pH 7.4. 4×10^6 bacterial cfu or 1×10^5 fungal cfu was added to 5 ml of the underlay agarose gel, consisting of 0.03% (w/v) TSB, 1% (w/v) low-electroendoosmosistype (Low-EEO) agarose (Sigma, St Louise Mo.) and a final concentration of 0.02% (v/v) Tween 20 (Sigma). The underlay was poured into a Ø 85 mm petri dish. After agarose solidified, 4 mm-diameter wells were punched and 6 μl of test sample was added to each well. Plates were incubated at 37° C. for 3 hours to allow diffusion of the peptides. The underlay gel was then covered with 5 ml of molten overlay (6% TSB and 1% Low-EEO agarose in dH2O). Antimicrobial activity of a peptide is visualized as a clear zone around each well after 18-24 hours of incubation at 37° C. for bacteria and 28° C. for Candida albicans. Other examples of peptides that were screened and found to show an increased effect against the above mentioned microorgansism are listed below. Some of the results are found in table 1c showing the effects against C. albicans, table 1d E. coli and table 1e S. aureus.

[2] = system: Eschericia coli ATCC25922; assay: Radial diffusion assay (RDA), E. coli; format: cell-based, Escherichia coli; set-up: Data (RDA antimicrobial activity, single replicates) / Mean (RDA antimicrobial activity): unit not given here; conditions: E. coli; for Data (RDA antimicrobial activity, single replicates): individual replicate; for Mean (RDA antimicrobial activity): mean of 3
Protocol: as §1, §2, §3

[3] = system: Staphylococcus aureus ATCC29213; assay: Radial diffusion assay (RDA), S. aureus; format: cell-based; set-up: Data (RDA antimicrobial activity, single replicates) / Mean (RDA antimicrobial activity): unit not given here; conditions: S. aureus; for Data (RDA antimicrobial activity, single replicates): individual replicate; for Mean (RDA antimicrobial activity): mean of 3
Protocol: as §1, §2, §3

## PKRKKKGGKNGKNRRNRKKKNWWW [PKR-21-WWW]
[1]; peptide 0.1 μM
  RDA Mean, C. albicans: 0.00
  RDA Data (single replicates), C. albicans: 0.00
[1]; peptide 0.5 μM
  RDA Mean, C. albicans: 0.00
  RDA Data (single replicates), C. albicans: 0.00
[1]; peptide 1 μM
  RDA Mean, C. albicans: 0.49
  RDA Data (single replicates), C. albicans: 0.55 and 0.42 and 0.51
[1]; peptide 5 μM
  RDA Mean, C. albicans: 1.14
  RDA Data (single replicates), C. albicans: 1.26 and 1.06 and 1.10
[1]; peptide 10 μM
  RDA Mean, C. albicans: 3.11
  RDA Data (single replicates), C. albicans: 3.54 and 2.82 and 2.97
[1]; peptide 50 μM
  RDA Mean, C. albicans: 5.47
  RDA Data (single replicates), C. albicans: 5.84 and 5.44 and 5.13
[1]; peptide 100 μM
  RDA Mean, C. albicans: 6.97
  RDA Data (single replicates), C. albicans: 6.69 and 7.04 and 7.19
[2]; peptide 0.1 μM
  Data (RDA antimicrobial activity, single replicates): 0
  Mean (RDA antimicrobial activity): 0.00
[2]; peptide 0.5 μM
  Data (RDA antimicrobial activity, single replicates): 1.26 and 1.05 and 0.84
  Mean (RDA antimicrobial activity): 1.05
[2]; peptide 1 μM
  Data (RDA antimicrobial activity, single replicates): 3.6 and 2.59 and 3.49
  Mean (RDA antimicrobial activity): 3.23
[2]; peptide 5 μM
  Data (RDA antimicrobial activity, single replicates): 4.99 and 5.03 and 4.75
  Mean (RDA antimicrobial activity): 4.92
[2]; peptide 10 μM
  Data (RDA antimicrobial activity, single replicates): 5.86 and 5.87 and 6.13
  Mean (RDA antimicrobial activity): 5.95
[2]; peptide 50 μM
  Data (RDA antimicrobial activity, single replicates): 7.71 and 7.97 and 6.98
  Mean (RDA antimicrobial activity): 7.55
[2]; peptide 100 μM
  Data (RDA antimicrobial activity, single replicates): 7.34 and 8.26 and 7.99
  Mean (RDA antimicrobial activity): 7.86
[3]; peptide 0.1 μM
  Data (RDA antimicrobial activity, single replicates): 0
  Mean (RDA antimicrobial activity): 0.00
[3]; peptide 0.5 μM
  Data (RDA antimicrobial activity, single replicates): 0
  Mean (RDA antimicrobial activity): 0.00
[3]; peptide 1 μM
  Data (RDA antimicrobial activity, single replicates): 2.56 and 2.59 and 3.06
  Mean (RDA antimicrobial activity): 2.74
[3]; peptide 5 μM
  Data (RDA antimicrobial activity, single replicates): 2.98 and 2.5 and 3.07
  Mean (RDA antimicrobial activity): 2.85
[3]; peptide 10 μM
  Data (RDA antimicrobial activity, single replicates): 3.53 and 4.06 and 3.83
  Mean (RDA antimicrobial activity): 3.81
[3]; peptide 50 μM
  Data (RDA antimicrobial activity, single replicates): 4.21 and 5.14 and 4.23
  Mean (RDA antimicrobial activity): 4.53
[3]; peptide 100 μM
  Data (RDA antimicrobial activity, single replicates): 4.77 and 5.67 and 5.02
  Mean (RDA antimicrobial activity): 5.15

## GKRKKKGKGLGKKRDPCLRKYKWWW [GKR-22-WWW]
[1]; peptide 0.1 μM
  RDA Mean, C. albicans: 0.00
  RDA Data (single replicates), C. albicans: 0.00
[1]; peptide 0.5 μM
  RDA Mean, C. albicans: 0.00
  RDA Data (single replicates), C. albicans: 0.00
[1]; peptide 1 μM
  RDA Mean, C. albicans: 0.00
  RDA Data (single replicates), C. albicans: 0.00
[1]; peptide 5 μM
  RDA Mean, C. albicans: 0.00
  RDA Data (single replicates), C. albicans: 0.00
[1]; peptide 10 μM
  RDA Mean, C. albicans: 0.66
  RDA Data (single replicates), C. albicans: 0.50 and 0.94 and 0.54
[1]; peptide 50 μM
  RDA Mean, C. albicans: 1.65
  RDA Data (single replicates), C. albicans: 1.95 and 1.59 and 1.40
[1]; peptide 100 μM
  RDA Mean, C. albicans: 5.55
  RDA Data (single replicates), C. albicans: 5.30 and 5.74 and 5.62
[2]; peptide 0.1 μM
  Data (RDA antimicrobial activity, single replicates): 0
  Mean (RDA antimicrobial activity): 0.00
[2]; peptide 0.5 μM
  Data (RDA antimicrobial activity, single replicates): 0.14 and 0.85 and 0.17
  Mean (RDA antimicrobial activity): 0.39
[2]; peptide 1 μM
  Data (RDA antimicrobial activity, single replicates): 2.74 and 3.2 and 2.59
  Mean (RDA antimicrobial activity): 2.84
[2]; peptide 5 μM
  Data (RDA antimicrobial activity, single replicates): 2.97 and 3.58 and 3.2
  Mean (RDA antimicrobial activity): 3.25
[2]; peptide 10 μM
  Data (RDA antimicrobial activity, single replicates): 5.67 and 5.68 and 5.48
  Mean (RDA antimicrobial activity): 5.61
[2]; peptide 50 μM
  Data (RDA antimicrobial activity, single replicates): 6.61 and 6.64 and 6.47
  Mean (RDA antimicrobial activity): 6.57
[2]; peptide 100 μM
  Data (RDA antimicrobial activity, single replicates): 7.8 and 8.04 and 8.12
  Mean (RDA antimicrobial activity): 7.99
[3]; peptide 0.1 μM
  Data (RDA antimicrobial activity, single replicates): 0
  Mean (RDA antimicrobial activity): 0.00
[3]; peptide 0.5 μM
  Data (RDA antimicrobial activity, single replicates): 0.36 and 0.49 and 0.6
  Mean (RDA antimicrobial activity): 0.48
[3]; peptide 1 μM
  Data (RDA antimicrobial activity, single replicates): 3.6 and 3.67 and 3.78
  Mean (RDA antimicrobial activity): 3.68
[3]; peptide 5 μM
  Data (RDA antimicrobial activity, single replicates): 3.87 and 4.57 and 4.53
  Mean (RDA antimicrobial activity): 4.32
[3]; peptide 10 μM
  Data (RDA antimicrobial activity, single replicates): 6.04 and 6.87 and 5.73
  Mean (RDA antimicrobial activity): 6.21
[3]; peptide 50 μM
  Data (RDA antimicrobial activity, single replicates): 7.12 and 8.12 and 7.41
  Mean (RDA antimicrobial activity): 7.55
[3]; peptide 100 μM
  Data (RDA antimicrobial activity, single replicates): 7.4 and 8.78 and 8.05
  Mean (RDA antimicrobial activity): 8.08

## PKR-21: growth factor derived peptide, untagged parent of PKR21WWW; sequence not printed (PKRKKKGGKNGKNRRNRKKKN; listed as Homo sapiens)
[1]; peptide 0.1 μM
  RDA Mean, C. albicans: 0.00
  RDA Data (single replicates), C. albicans: 0.00
[1]; peptide 0.5 μM
  RDA Mean, C. albicans: 0.00
  RDA Data (single replicates), C. albicans: 0.00
[1]; peptide 1 μM
  RDA Mean, C. albicans: 0.00
  RDA Data (single replicates), C. albicans: 0.00
[1]; peptide 5 μM
  RDA Mean, C. albicans: 0.00
  RDA Data (single replicates), C. albicans: 0.00
[1]; peptide 10 μM
  RDA Mean, C. albicans: 0.46
  RDA Data (single replicates), C. albicans: 0.42 and 0.39 and 0.58
[1]; peptide 50 μM
  RDA Mean, C. albicans: 4.04
  RDA Data (single replicates), C. albicans: 4.66 and 3.95 and 3.51
[1]; peptide 100 μM
  RDA Mean, C. albicans: 4.59
  RDA Data (single replicates), C. albicans: 4.65 and 4.56 and 4.55
[2]; peptide 0.1 μM
  Data (RDA antimicrobial activity, single replicates): 0
  Mean (RDA antimicrobial activity): 0.00
[2]; peptide 0.5 μM
  Data (RDA antimicrobial activity, single replicates): 0.3 and 0.7 and 0.58
  Mean (RDA antimicrobial activity): 0.53
[2]; peptide 1 μM
  Data (RDA antimicrobial activity, single replicates): 0.56 and 0.97 and 1.02
  Mean (RDA antimicrobial activity): 0.85
[2]; peptide 5 μM
  Data (RDA antimicrobial activity, single replicates): 0.63 and 1.65 and 0.55
  Mean (RDA antimicrobial activity): 0.94
[2]; peptide 10 μM
  Data (RDA antimicrobial activity, single replicates): 0.94 and 1.08 and 1.02
  Mean (RDA antimicrobial activity): 1.01
[2]; peptide 50 μM
  Data (RDA antimicrobial activity, single replicates): 1.16 and 1.52 and 1.01
  Mean (RDA antimicrobial activity): 1.23
[2]; peptide 100 μM
  Data (RDA antimicrobial activity, single replicates): 1.34 and 1.37 and 1.39
  Mean (RDA antimicrobial activity): 1.37
[3]; peptide 0.1 μM
  Data (RDA antimicrobial activity, single replicates): 0
  Mean (RDA antimicrobial activity): 0.00
[3]; peptide 0.5 μM
  Data (RDA antimicrobial activity, single replicates): 0
  Mean (RDA antimicrobial activity): 0.00
[3]; peptide 1 μM
  Data (RDA antimicrobial activity, single replicates): 0
  Mean (RDA antimicrobial activity): 0.00
[3]; peptide 5 μM
  Data (RDA antimicrobial activity, single replicates): 0
  Mean (RDA antimicrobial activity): 0.00
[3]; peptide 10 μM
  Data (RDA antimicrobial activity, single replicates): 0.17 and 0.4 and 0.77
  Mean (RDA antimicrobial activity): 0.45
[3]; peptide 50 μM
  Data (RDA antimicrobial activity, single replicates): 1.06 and 1.6 and 1.24
  Mean (RDA antimicrobial activity): 1.30
[3]; peptide 100 μM
  Data (RDA antimicrobial activity, single replicates): 2.63 and 2.54 and 1.84
  Mean (RDA antimicrobial activity): 2.34
